Measured values: US20220089592A1, “IMIDAZO[1,2-A]PYRIDINYL DERIVATIVES AS IRAK4 INHIBITORS” (priority 2019, published 2022)

target: T1, IRAK4 (Homo sapiens, UniProt Q9NWZ3); experiment: 2-hour 1 mM ATP IRAK4 Biochemical assay (as above, but with 100 pM IRAK4 and 1 mM ATP); settings: IRAK4 MSD BIOCHEMICAL (1 mM ATP) IC50 (μM), 100 pM IRAK4, 2 hours
T1 sequence (Q9NWZ3 1-460): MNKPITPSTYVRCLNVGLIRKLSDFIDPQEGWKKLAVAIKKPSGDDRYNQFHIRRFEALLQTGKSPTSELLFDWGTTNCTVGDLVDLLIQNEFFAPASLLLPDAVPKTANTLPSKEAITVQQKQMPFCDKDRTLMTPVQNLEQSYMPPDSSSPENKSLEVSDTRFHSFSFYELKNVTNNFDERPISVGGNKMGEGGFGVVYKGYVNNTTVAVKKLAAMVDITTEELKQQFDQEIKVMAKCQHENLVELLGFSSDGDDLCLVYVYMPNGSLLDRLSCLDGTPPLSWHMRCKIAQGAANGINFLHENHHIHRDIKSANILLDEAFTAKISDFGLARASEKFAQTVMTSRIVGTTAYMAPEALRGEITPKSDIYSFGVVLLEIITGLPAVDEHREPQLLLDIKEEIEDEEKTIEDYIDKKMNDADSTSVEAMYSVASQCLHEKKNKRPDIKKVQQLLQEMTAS
Summary of the method: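 Run with 100 pM IRAK4 and 1 mM ATP for 2 hours, quenched with EDTA pH 8. Phosphorylated biotinylated peptide captured on streptavidin MSD plates and detected with anti-phosphothreonine antibody plus Sulfo-Tag secondary by electrochemiluminescence.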

Row | Compound | IC50
1 | COc1ncccc1C(=O)Nc1cn2cc(Cl)nc2cc1OC(C)C [Example 401, N-(2-chloro-7-isopropoxyimidazo[1,2-a]pyridin-6-yl)-2-methoxynicotinamide] | 0.027 µM
2 | CCOc1nc(NC(=O)c2coc(C)n2)cn2cc(C34COC(C)(C3)C4)nc12 [Example 473, N-(8-ethoxy-2-(1-methyl-2-oxabicyclo[2.1.1]hexan-4-yl)imidazo[1,2-a]pyrazin-6-yl)-2-methyloxazole-4-carboxamide] | 0.031 µM
3 | CC(C)Oc1cc2nc(C3CCOCC3)cn2cc1NC(=O)c1cc(C(F)F)cs1 [Example 232, 4-(difluoromethyl)-N-(7-isopropoxy-2-(tetrahydro-2H-pyran-4-yl)imidazo[1,2-a]pyridin-6-yl)thiophene-2-carboxamide] | 0.044 µM
4 | COc1ncccc1C(=O)Nc1cn2cc(C34COC(C)(C3)C4)nc2c(F)c1OC(C)C [Example 428, N-(8-fluoro-7-isopropoxy-2-(1-methyl-2-oxabicyclo[2.1.1]hexan-4-yl)imidazo[1,2-a]pyridin-6-yl)-2-methoxynicotinamide] | 0.01 µM
5 | COc1nc(NC(=O)c2ccn(C(C)C)n2)cn2cc(C3CCOCC3)nc12 [Example 462, 1-isopropyl-N-(8-methoxy-2-(tetrahydro-2H-pyran-4-yl)imidazo[1,2-a]pyrazin-6-yl)-1H-pyrazole-3-carboxamide 2,2,2-trifluoroacetate] | 0.095 µM
6 | COCc1cc2nc(C3CCOCC3)cn2cc1NC(=O)c1cccc(C)n1 [Example 371, N-(7-(methoxymethyl)-2-(tetrahydro-2H-pyran-4-yl)imidazo[1,2-a]pyridin-6-yl)-6-methylpicolinamide 2,2,2-trifluoroacetate] | 0.035 µM
7 | COc1nc2nc(C3CCCOC3)cn2cc1NC(=O)c1cccc(C(F)F)n1 (stereo not drawn) [Example 569, 6-(difluoromethyl)-N-(7-methoxy-2-(tetrahydro-2H-pyran-3-yl)imidazo[1,2-a]pyrimidin-6-yl)picolinamide] | 0.004 µM
8 | CC(C)Oc1nc(NC(=O)c2cccc(C(F)F)n2)cn2cc(C3CCOCC3)nc12 [Example 339, 6-(difluoromethyl)-N-(8-isopropoxy-2-(tetrahydro-2H-pyran-4-yl)imidazo[1,2-a]pyrazin-6-yl)picolinamide] | 0.016 µM
9 | CC(C)Oc1nc2nc(C34CC(C3)C4)cn2cc1NC(=O)c1cccc(C(F)F)n1 [Example 573, N-(2-(bicyclo[1.1.1]pentan-1-yl)-7-isopropoxyimidazo[1,2-a]pyrimidin-6-yl)-6-(difluoromethyl)picolinamide 2,2,2-trifluoroacetate] | 0.003 µM
10 | CCOc1nc(NC(=O)c2cccc(C(F)F)n2)cn2cc(C3CCOCC3)nc12 [Example 475, 6-(difluoromethyl)-N-(8-ethoxy-2-(tetrahydro-2H-pyran-4-yl)imidazo[1,2-a]pyrazin-6-yl)picolinamide 2,2,2-trifluoroacetate] | 0.008 µM
11 | CC12CC(c3cn4cc(NC(=O)c5cccc(C(F)F)n5)nc(OCc5ccccc5)c4n3)(CO1)C2 [Example 199, N-(8-(benzyloxy)-2-(1-methyl-2-oxabicyclo[2.1.1]hexan-4-yl)imidazo[1,2-a]pyrazin-6-yl)-6-(difluoromethyl)picolinamide] | 0.016 µM
12 | CCOc1cc(NC(=O)c2cccc(C(F)F)n2)cn2cc(C3CCCOC3)nc12 (single isomer, unassigned) [Example 286, 6-(difluoromethyl)-N-(8-ethoxy-2-(tetrahydro-2H-pyran-3-yl)imidazo[1,2-a]pyridin-6-yl)picolinamide] | 0.005 µM
13 | CC(C)Oc1cc(NC(=O)c2cccc(C(F)F)n2)cn2cc(C3CCOCC3)nc12 [Example 418, 6-(difluoromethyl)-N-(8-isopropoxy-2-(tetrahydro-2H-pyran-4-yl)imidazo[1,2-a]pyridin-6-yl)picolinamide 2,2,2-trifluoroacetate] | 0.021 µM
14 | CC12CC(c3cn4cc(NC(=O)c5cccc(C(F)F)n5)nc(O)c4n3)(CO1)C2 [Example 200, 6-(difluoromethyl)-N-(8-hydroxy-2-(1-methyl-2-oxabicyclo[2.1.1]hexan-4-yl)imidazo[1,2-a]pyrazin-6-yl)picolinamide] | 0.06 µM
15 | CCC(C)Oc1c(NC(=O)c2cccnc2OC)cn2cc(C34COC(C)(C3)C4)nc2c1F (single isomer, unassigned) [Example 328, N-(7-(sec-butoxy)-8-fluoro-2-(1-methyl-2-oxabicyclo[2.1.1]hexan-4-yl)imidazo[1,2-a]pyridin-6-yl)-2-methoxynicotinamide] | 0.004 µM
16 | CC(C)Oc1c(NC(=O)c2cccc(OCC(F)F)n2)cn2cc(C34COC(C)(C3)C4)nc2c1F [Example 429, 6-(2,2-difluoroethoxy)-N-(8-fluoro-7-isopropoxy-2-(1-methyl-2-oxabicyclo[2.1.1]hexan-4-yl)imidazo[1,2-a]pyridin-6-yl)picolinamide 2,2,2-trifluoroacetate] | 0.006 µM
17 | Cc1nc(NC(=O)c2cccc(C(F)F)n2)cn2cc(C3CCOCC3)nc12 [Example 296, 6-(difluoromethyl)-N-(8-methyl-2-(tetrahydro-2H-pyran-4-yl)imidazo[1,2-a]pyrazin-6-yl)picolinamide] | 0.089 µM
18 | CCOc1cc2nc(C3CCOCC3)cn2cc1NC(=O)c1cccc(C2CCOC2)n1 (stereo not drawn) [Example 367, N-(7-ethoxy-2-(tetrahydro-2H-pyran-4-yl)imidazo[1,2-a]pyridin-6-yl)-6-(tetrahydrofuran-3-yl)picolinamide] | 0.011 µM

The remaining molecules from weak to strong by IC50, led by results:

Row | IC50 | Compound
19 | 0.003 µM | Cc1cccc(C(=O)Nc2cn3cc(C45COC(C)(C4)C5)nc3c(F)c2OC(C)C)c1F [Example 425, 2-fluoro-N-(8-fluoro-7-isopropoxy-2-(1-methyl-2-oxabicyclo[2.1.1]hexan-4-yl)imidazo[1,2-a]pyridin-6-yl)-3-methylbenzamide 2,2,2-trifluoroacetate]
20 | 0.002 µM | COc1nc(NC(=O)c2cccc(C(F)F)n2)cn2cc(C3CCOC(C)(C)C3)nc12 (stereo not drawn) [Example 560, 6-(difluoromethyl)-N-(2-(2,2-dimethyltetrahydro-2H-pyran-4-yl)-8-methoxyimidazo[1,2-a]pyrazin-6-yl)picolinamide 2,2,2-trifluoroacetate]
21 | 0.002 µM | COc1ccccc1C(=O)Nc1cn2cc(C34COC(C)(C3)C4)nc2nc1OC(C)C [Example 488, N-(7-isopropoxy-2-(1-methyl-2-oxabicyclo[2.1.1]hexan-4-yl)imidazo[1,2-a]pyrimidin-6-yl)-2-methoxybenzamide]
22 | 0.002 µM | CC(C)Oc1nc2nc(C3C4COCC43)cn2cc1NC(=O)c1coc(C(C)C)n1 (stereo not drawn) [Example 504, N-(2-(3-oxabicyclo[3.1.0]hexan-6-yl)-7-isopropoxyimidazo[1,2-a]pyrimidin-6-yl)-2-isopropyloxazole-4-carboxamide]
23 | 0.002 µM | CC(C)Oc1cc2nc(C34CC(F)(C3)C4)cn2cc1NC(=O)c1cccc(C(F)(F)F)n1 [Example 539, N-(2-(3-fluorobicyclo[1.1.1]pentan-1-yl)-7-isopropoxyimidazo[1,2-a]pyridin-6-yl)-6-(trifluoromethyl)picolinamide 2,2,2-trifluoroacetate]
24 | 0.002 µM | O=C(Nc1cn2cc(C3CCOCC3)nc2cc1OCC1CC(F)(F)C1)c1cccc(C(F)F)n1 [Example 191, N-(7-((3,3-difluorocyclobutyl)methoxy)-2-(tetrahydro-2H-pyran-4-yl)imidazo[1,2-a]pyridin-6-yl)-6-(difluoromethyl)picolinamide]
25 | 0.002 µM | CC(C)Oc1cc2nc(C3CCOCC3)cn2cc1NC(=O)c1cccc2c1OCC2 [Example 379, N-(7-isopropoxy-2-(tetrahydro-2H-pyran-4-yl)imidazo[1,2-a]pyridin-6-yl)-2,3-dihydrobenzofuran-7-carboxamide]
26 | 0.002 µM | Cc1nc(C(=O)Nc2cn3cc(C4CCOCC4)nc3cc2OC(C)C)co1 [Example 386, N-(7-isopropoxy-2-(tetrahydro-2H-pyran-4-yl)imidazo[1,2-a]pyridin-6-yl)-2-methyloxazole-4-carboxamide]
27 | 0.001 µM | CC(C)Oc1c(NC(=O)c2ccn(C(C)C)n2)cn2cc(C34COC(C)(C3)C4)nc2c1F [Example 546, N-(8-fluoro-7-isopropoxy-2-(1-methyl-2-oxabicyclo[2.1.1]hexan-4-yl)imidazo[1,2-a]pyridin-6-yl)-1-isopropyl-1H-pyrazole-3-carboxamide 2,2,2-trifluoroacetate]
28 | 0.001 µM | CC(C)Oc1nc2nc(C34COC(C)(C3)C4)cn2cc1NC(=O)c1cccc(C2CCOC2)n1 (stereo not drawn) [Example 493, N-(7-isopropoxy-2-(1-methyl-2-oxabicyclo[2.1.1]hexan-4-yl)imidazo[1,2-a]pyrimidin-6-yl)-6-(tetrahydrofuran-3-yl)picolinamide]
29 | 0.001 µM | CC(C)Oc1nc2nc(C34COC(C)(C3)C4)cn2cc1NC(=O)c1cnn2cccc(F)c12 [Example 349, 4-fluoro-N-(7-isopropoxy-2-(1-methyl-2-oxabicyclo[2.1.1]hexan-4-yl)imidazo[1,2-a]pyrimidin-6-yl)pyrazolo[1,5-a]pyridine-3-carboxamide]
30 | 0.001 µM | CC(C)Oc1nc2nc(C34COC(C)(C3)C4)cn2cc1NC(=O)c1csc(C(F)(F)F)n1 [Example 499, N-(7-isopropoxy-2-(1-methyl-2-oxabicyclo[2.1.1]hexan-4-yl)imidazo[1,2-a]pyrimidin-6-yl)-2-(trifluoromethyl)thiazole-4-carboxamide]
